Values quoted from earlier work as cited in US9314021B2, “Formulations containing insect repellent compounds” (E I DU PONT DE NEMOURS AND COMPANY, priority 2004, dated 2016).

Test system: ant species Monomorium destructor
Conditions: pure undiluted compound; after 25 seconds of exposure; during feeding

SMILES: CC1COC(=O)C2C(C)CCC12 (stereo not shown) [dihydronepetalactone]
- ants ceased to feed: 50-60%
